Columns and labels:
RBL-2H3 [1] = experiment: Inhibition of anti-DNP-IgE-induced degranulation in rat RBL2H3 cells assessed as betahexosaminidase released at 10 uM after 20 mins by microplate reader assay; type: functional; conditions: RBL-2H3, 20 min
RBL-2H3 [2] = experiment: Inhibition of anti-DNP-IgE-induced degranulation in rat RBL2H3 cells assessed as betahexosaminidase released at 100 uM after 20 mins by microplate reader assay; type: functional; conditions: RBL-2H3, 20 min

Row | Structure (SMILES) | inhibition at 10 µM (RBL-2H3 [1]) | inhibition at 100 µM (RBL-2H3 [2])
1 | C[C@H](CCc1ccc(O)cc1)O[C@H]1O[C@H](COC(=O)C[C@@](C)(O)CC(=O)O)[C@@H](O)[C@H](O)[C@H]1O | 26.6% | 20%
2 | O=c1c(O)c(-c2ccc(O)c(O)c2)oc2cc(O)cc(O)c12 [QUERCETIN] | 32.9% | 
3 | OC[C@]1(O)CO[C@@H](OC[C@H]2O[C@@H](O[C@H](CCCCc3ccc(O)cc3)CCc3ccc(O)cc3)[C@H](O)[C@@H](O)[C@@H]2O)[C@H]1O [ACEROSIDEVIII] | 11.7% | 22.4%
4 | C[C@H](CCc1ccc(O)cc1)O[C@@H]1O[C@H](CO)[C@@H](O)[C@H](O)[C@H]1O | 25% | 42.3%
5 | C[C@@H](O)CCc1ccc(O)cc1 | 29.7% | 36.5%
6 | O=C(CCc1ccc(O)cc1)C[C@@H](CCc1ccc(O)cc1)O[C@@H]1O[C@H](CO[C@@H]2OC[C@](O)(CO)[C@H]2O)[C@@H](O)[C@H](O)[C@H]1O[C@H]1OC[C@@](O)(CO)[C@@H]1O | 11.8% | 23.4%
7 | Oc1ccc(CCCC[C@@H](O)CCc2ccc(O)cc2)cc1 | 19.2% | 31.5%
8 | C[C@H](CCc1ccc(O)cc1)O[C@@H]1O[C@H](CO[C@@H]2OC[C@@](O)(CO)[C@@H]2O)[C@@H](O)[C@H](O)[C@H]1O [APIOSYLRHODODENDRIN] | 25.4% | 26.7%
9 | OC[C@]1(O)CO[C@@H](OC[C@H]2O[C@@H](O[C@H](CCCCc3ccc(O)cc3)CCc3ccc(O)cc3)[C@H](O[C@H]3OC[C@@](O)(CO)[C@@H]3O)[C@@H](O)[C@@H]2O)[C@H]1O | 22.1% | 23.2%

From ChEMBL document CHEMBL1157920, “Inhibition of antigen-induced degranulation by aryl compounds isolated from the bark of Betula platyphylla in RBL-2H3 cells” (2010)
